Assay results from patent publication US20120009152A1, “NITRIC OXIDE DONORS FOR TREATMENT OF DISEASE AND INJURY” (priority 2002, published 2012).

What was measured:
Assay type in all cases: in vivo, rat
[1] = test system: cerebral vessels in the ischemic penumbra; assay: Angiogenesis after MCAo, combination study (BrdU endothelial cells, three-dimensional vessel analysis); details: vs control MCAo group
Description: (§1) Male Wistar rats (n=32) were subjected to middle cerebral artery occlusion (MCAo) and were randomized with 8 rats in four treatment groups, with treatment initiated 1 day after stroke. Groups included: 1) phosphate buffered saline (PBS); 2) subtherapeutic DETA-NONOate (NN) at a dose of 0.4 mg/kg (IP); 3) subtherapeutic hMSCs (1×10^6 cells-iv); and 4) combination subtherapeutic NN and hMSCs. Functional outcome measurements consisted of a Neurologic Severity Scale (18 point scale) (NSS) and the Adhesive Removal Test performed prior to stroke, immediately before treatment and at 7 and 14 days after treatment. […] However, there was an overall hMSC effect on NSS at 14 days.
Enlarged and thin walled vessels are termed “mother” vessels and have been found under conditions of cerebral ischemic angiogenesis.
FIGS. 11B and C are computer generated three-dimensional images derived from the original images. Different colors in FIG. 11B represent individual vessels, which were not connected to each other. Green and red colors in FIG. 11C code for diameter of blood vessels less then 7.5 μm (red) and larger then 7.5 μm (green), respectively. […] Enlarged vessels can develop into capillaries after ischemia.

[2] = test system: rats subjected to middle cerebral artery occlusion (MCAo); assay: Adhesive Removal Test after MCAo, combination study; details: treatment 1 day after stroke; NN 0.4 mg/kg IP, hMSCs 1×10^6 cells iv; vs control
Description: as §1

[3] = test system: rats subjected to embolic middle cerebral artery occlusion; assay: Foot-fault test after embolic MCA occlusion
Description: Male Wistar rats weighing 320 to 380 g were used in the present study. The middle cerebral artery (MCA) was occluded by placement of an embolus at the origin of the MCA.
Ischemic rats (n=9) were treated with the same volume of tap water as a control group. Functional tests were performed and body weight was measured before ischemia and at 4, 7, 14, 21, and 28 days after onset of MCA occlusion. All rats were killed 28 days after MCA occlusion. […] These rats were killed 1 hour after the last treatment for measurements of brain levels of cGMP. […] Experiments were also performed to examine brain PDE5, nonischemic rats and ischemic rats were killed at 2, 4, 24, 48, and 168 hours after the onset of ischemia (n=3 for each time point). Reverse transcription (RT)-polymerase chain reaction (PCR) was performed to detect PDE5 in brain tissue.
Rats were tested for placement dysfunction of forelimbs with the modified foot-fault test before ischemia and at 4, 7, 14, 21, and 28 days after embolic ischemia. Rats were set on an elevated hexagonal grid of different sizes and placed their paws on the wire while moving along the grid. With each weight-bearing step, the paw may fall or slip between the wire. The total number of steps (movement of each forelimb) that the rat used to cross the grid was counted, and the total number of foot-faults for each forelimb was recorded.

[4] = test system: BrdU-immunoreactive cells in the subventricular zone and dentate gyrus; assay: BrdU cell proliferation in subventricular zone and dentate gyrus after embolic MCA occlusion; details: 28 days
Description: Male Wistar rats weighing 320 to 380 g were used in the present study. The middle cerebral artery (MCA) was occluded by placement of an embolus at the origin of the MCA. […] Ischemic rats (n=9) were treated with the same volume of tap water as a control group. Functional tests were performed and body weight was measured before ischemia and at 4, 7, 14, 21, and 28 days after onset of MCA occlusion. All rats were killed 28 days after MCA occlusion. […] These rats were killed 1 hour after the last treatment for measurements of brain levels of cGMP. […] Reverse transcription (RT)-polymerase chain reaction (PCR) was performed to detect PDE5 in brain tissue. Bromodeoxyuridine (BrdU) was used to measure cell proliferation. Animals received daily intraperitoneal injections of BrdU (50 mg/kg; Sigma) on the day of stroke and subsequently for 14 consecutive days. Cell proliferation in the subventricular zone and dentate gyrus was measured in rats killed at 28 days (in experimental protocol 1, all 4 groups) after ischemia. […] Sections were incubated with a primary antibody to BrdU (1:100) at room temperature for 1 hour and then incubated with biotinylated secondary antibody (1:200, Vector) for 1 hour. Reaction product was detected with the use of 3′3′-diaminobenzidine-tetrahydrochloride (DAB; Sigma), For ′III-tubulin (TuJ1) immunostaining, which identifies immature neurons, 12 coronal sections were incubated with the antibody against TuJ1 (1:1000) at 4° C. overnight and were then incubated with a biotinylated horse anti-mouse immunoglobulin antibody at room temperature for 30 minutes. Double immunofluorescent staining for BrdU and TuJ1 as performed to determine whether BrdU-immunoreactive cells express neuronal phenotype on the coronal sections. Measurements of BrdU-immunoreactive cells were performed on paraffin-embedded 6-μm-thick sections. 11 BrdU-immunostained sections were digitized with the use of a 40 objective (Olympus BX40) via the MCID computer imaging analysis system (Imaging Research). BrdU-immunoreactive nuclei were counted on a computer monitor to improve visualization and in 1 focal plane to avoid oversampling. All BrdU-immunoreactive-positive nuclei were counted in both the ipsilateral and contralateral walls of the lateral ventricle of the subventricular zone and in the dentate gyrus. […] For the dentate gyrus, every 50th coronal section was selected from each rat for a total of 8 sections between anteroposterior 5.86 mm and anteroposterior 2.96 mm of the granule cell layer. BrdU-immunoreactive nuclei in the subventricular zone and in the dentate gyrus are presented as the number of the cells per square millimeter (mean SE). […] Numbers of TuJ1-immunoreactive cells were counted in the subventricular one and striatum, and data are presented as the number of TuJ1-immunoreactive cells per section (mean SE).

[5] = Sildenafil 2 mg/kg from 2 h after MCA occlusion
[6] = Sildenafil 2 mg/kg from 24 h after MCA occlusion
[7] = Sildenafil 5 mg/kg from 2 h after MCA occlusion

NCCN(CCN)/[N+]([O-])=N/O [DETANONOate, (Z)-1-[N-(2-aminoethyl)-N-(2-ammonioethyl)aminio]diazen-1-ium-1,2-diolate]
BrdU immunoreactive endothelial cells in enlarged vessels, ipsilateral hemisphere [1]: significant (p<0.05) increase
Adhesive-Removal test score at 14 days [2]: no significant improvement

CCCc1nn(C)c2c(=O)[nH]c(-c3cc(S(=O)(=O)N4CCN(C)CC4)ccc3OCC)nc12 [Sildenafil]
% of Foot-Faults ([3]; Sildenafil 2 mg/kg, 2 h, 4 d after ischemia): 22.81 ± 3.1%
% of Foot-Faults ([3]; Sildenafil 2 mg/kg, 2 h, 7 d): 15.2 ± 1.6 %
% of Foot-Faults ([3]; Sildenafil 2 mg/kg, 2 h, 14 d): 13.2 ± 1.2 %
% of Foot-Faults ([3]; Sildenafil 2 mg/kg, 2 h, 21 d): 9.1 ± 1.5 %
% of Foot-Faults ([3]; Sildenafil 2 mg/kg, 2 h, 28 d): 8.2 ± 1.4%
% of Foot-Faults ([3]; Sildenafil 2 mg/kg, 2 h group, Before Ischemia (baseline)): 1.1 ± 0.01%
% of Foot-Faults ([3]; Sildenafil 2 mg/kg, 24 h, 4 d): 25.3 ± 3.8%
% of Foot-Faults ([3]; Sildenafil 2 mg/kg, 24 h, 7 d): 14.4 ± 1.0 %
% of Foot-Faults ([3]; Sildenafil 2 mg/kg, 24 h, 14 d): 10.0 ± 0.5 %
% of Foot-Faults ([3]; Sildenafil 2 mg/kg, 24 h, 21 d): 9.0 ± 0.5 %
% of Foot-Faults ([3]; Sildenafil 2 mg/kg, 24 h, 28 d): 5.3 ± 0.8 %
% of Foot-Faults ([3]; Sildenafil 2 mg/kg, 24 h group, Before Ischemia (baseline)): 1.03 ± 0.03%
% of Foot-Faults ([3]; Sildenafil 5 mg/kg, 2 h, 4 d): 17.9 ± 2.9%
% of Foot-Faults ([3]; Sildenafil 5 mg/kg, 2 h, 7 d): 16.6 ± 1.4 %
% of Foot-Faults ([3]; Sildenafil 5 mg/kg, 2 h, 14 d): 14.6 ± 2.1 %
% of Foot-Faults ([3]; Sildenafil 5 mg/kg, 2 h, 21 d): 9.5 ± 1.6 %
% of Foot-Faults ([3]; Sildenafil 5 mg/kg, 2 h, 28 d): 7.6 ± 1.4%
% of Foot-Faults ([3]; Sildenafil 5 mg/kg, 2 h group, Before Ischemia (baseline)): 1.02 ± 0.02%
Density of newborn cells, Dentate Gyrus Contralateral [4, 5]: 55 ± 2.10 cells per mm^2
Density of newborn cells, Dentate Gyrus Ipsilateral [4, 5]: 55 ± 3.99 cells per mm^2
Density of newborn cells, Subventricular Zone Contralateral [4, 5]: 296 ± 19.74 cells per mm^2
Density of newborn cells, Dentate Gyrus Contralateral [4, 6]: 56 ± 4.76 cells per mm^2
Density of newborn cells, Dentate Gyrus Ipsilateral [4, 6]: 57 ± 4.21 cells per mm^2
Density of newborn cells, Subventricular Zone Contralateral [4, 6]: 295 ± 24.54 cells per mm^2
Density of newborn cells, Subventricular Zone Ipsilateral [4, 6]: 374 ± 16.07 cells per mm^2
Density of newborn cells, Subventricular Zone Ipsilateral ([4]; Sildenafil 2 mg/kg oral daily 7 days from 2 h after MCA occlusion): 383 ± 23.44 cells per mm^2
Density of newborn cells, Dentate Gyrus Contralateral [4, 7]: 58 ± 5.38 cells per mm^2
Density of newborn cells, Dentate Gyrus Ipsilateral [4, 7]: 59 ± 5.26 cells per mm^2
Density of newborn cells, Subventricular Zone Contralateral [4, 7]: 312 ± 23.79 cells per mm^2
Density of newborn cells, Subventricular Zone Ipsilateral [4, 7]: 437 ± 32.97 cells per mm^2
